Tests used:
HCC1937 tumors = assay: Orthotopic tumor model, HCC1937; type: in vivo, mouse; details: HCC1937 in mammary fat pads, NSG mice, daily oral 400 mg/kg, 28 days
Experimental: (§1) Orthotopic Tumor Model. Experiments in mice were conducted under a protocol approved by the IACUC of City of Hope. Because HCC1937 and HCC1937+BRCA1 cells form slow-growing tumors, they were implanted using MATRIGEL™ (Becton-Dickinson Biosciences). To establish tumors, 4×10^6 cells in 200 μL serum-free medium containing 50% MATRIGEL™ were injected into the mammary fat pads around the inguinal area of a pair of 8 week old female NSG mice. Once the initial tumors reached 13 mm in diameter, they were dissected out, minced into 3 mm pieces and implanted into the inguinal area of the mammary fat pads of the experimental mice. Tumors were measured over a 28-day period, and for each time point, the student t-test was used to determine the statistical significance between daily gavage with 400 mg/kg COH29 in 30% solutol and corresponding vehicle control. Thep value less than 0.05 (2 sides) was considered to indicate statistical significance

HCC1937+BRCA1 tumors = assay: Orthotopic tumor model, HCC1937+BRCA1; type: in vivo, mouse; details: HCC1937+BRCA1 in mammary fat pads, NSG mice, daily oral 400 mg/kg, 28 days
Experimental: as §1

MOLT-4 xenograft tumors = assay: MOLT-4 mouse xenograft; type: in vivo; details: MOLT-4, oral twice daily 50 and 100 mg/kg, 12 days
Experimental: (§2) FIGS. 12A-12D depict the activity of COH29 in mouse xenografts. Cancer cells were implanted and allowed to grow at the subcutaneous site until the tumor was measurable. Subcutaneous xenograft growth curves for leukemic-(MOLT-4) mice treated for 12 days with oral COH29 in twice-daily dosing at 50 and 100 mg/kg (FIG. 12A) and for ovarian cancer bearing mice (TOV112D) treated for 7 days with 200, 300, or 400 mg/kg of oral COH29 (FIG. 12B) (shown are the average±SDs for 4 animals/group). FIG. 12C depicts the activity of RNR in MOLT-4 tumor xenografts from mice treated with vehicle (solutol-15) or 100 mg/kg of oral COH29 for 12 days. FIG. 12D depicts the effect of oral COH29 on intratumoral dTNP pools from MOLT-4 tumor xenografts.

ribonucleotide reductase = target: T1, ribonucleotide reductase (Homo sapiens, UniProt P31350); assay: RNR activity and dNTP pools in MOLT-4 tumor xenografts; type: in vivo, mouse; details: MOLT-4 xenografts
T1 construct: from tissue; host or cells: MOLT-4 subcutaneous tumour xenografts from mice dosed orally with COH29
Experimental: as §2

PARP1 = PARP1 protein expression by Western blot; type: cell-based, human
Experimental: FIGS. 3A-3B. […] (FIG. 3A): the effect of COH29 on PARP1 activity in isogenic pairs of breast (HCC1937) and ovarian (UWB1.289) cancer cell lines expressing mutant or wt BRCA1 (wt=+BRCA1 in each case) was assessed in duplicate using procedures described in Materials & Methods; FIG. 3B: the effect of COH29 on PARP1 protein expression in the isogenic HCC1937/HCC1937+BRCA1 cell lines was assessed by Western blot analysis using anti-human PARP1 antibody as the primary antibody. Loading control is β-actin.
For subcellular fractionation, cells were trypsinized and washed with cold PBS solution twice. […] Following centrifugation at 1,000 g for 5 min, the supernatant was collected (i.e., cytoplasmic fraction) and pellets were washed with the same buffer twice. The washed samples were extracted for 40 min on ice with fractionation buffer containing 0.5% NP-40 for nuclear fraction. All the samples were sonicated and clarified by centrifugation at 16,000 g for 15 min. Protein concentrations of all fractions were determined with Bio-Rad Protein Assay (Bio-Rad Laboratories, Hercules, Calif.). Immunoblotting was performed as described previously (21,22). Briefly, equal amounts of boiled protein samples were subjected to SDS-polyacrylamide gel electrophoresis (PAGE) and transferred onto nitrocellulose membranes (Bio-Rad Laboratories). Membranes were blocked for 1 hour in 3% BSA in Tris buffered saline containing 0.05% Tween 20 (TBST) and incubated for 1 hour with primary antibody (1:500 or 1:1000) diluted in TBST containing 1% BSA. After two washes with TBST, membranes were incubated for 1 hour with horseradish peroxidase-conjugated secondary Abs (1:3000 dilution) at room temperature. The immunoblots were visualized on film with the West-Q chemi-luminescence kit (GenDEPOT, Barker, Tex.).

tumor xenografts = assay: Pilot tumor xenograft study; type: in vivo; details: daily oral administration, IL2-rg(KO)/NOD-Scid mice
Excerpt: Toxicity studies in rats and dogs at doses equivalent to 10× that dose have not shown toxicity at 10 or 21 days.

T1 sequence (P31350 whole entry): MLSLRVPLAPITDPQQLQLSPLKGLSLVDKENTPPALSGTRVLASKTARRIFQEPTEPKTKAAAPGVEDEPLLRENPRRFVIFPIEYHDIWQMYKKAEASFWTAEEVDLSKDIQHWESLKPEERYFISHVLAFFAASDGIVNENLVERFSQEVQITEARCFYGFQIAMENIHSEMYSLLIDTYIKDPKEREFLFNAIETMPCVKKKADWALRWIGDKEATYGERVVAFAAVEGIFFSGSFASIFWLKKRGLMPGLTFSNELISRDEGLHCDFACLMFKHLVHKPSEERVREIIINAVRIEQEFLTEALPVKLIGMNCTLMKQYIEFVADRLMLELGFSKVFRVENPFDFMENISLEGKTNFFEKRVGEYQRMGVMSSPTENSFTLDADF

Compound: O=C(Nc1nc(-c2ccc(O)c(O)c2)c(-c2ccccc2)s1)c1ccc(O)c(O)c1 [COH29, N-(4-(3,4-dihydroxyphenyl)-5-phenylthiazol-2-yl)-3,4-dihydroxybenzamide]
- growth of tumors vs vehicle (HCC1937 tumors): significantly (p=0.0007) suppressed
- tumor size vs vehicle controls (HCC1937+BRCA1 tumors): not significantly smaller
- xenograft tumor growth (MOLT-4 xenograft tumors): inhibited
- tumor ribonucleotide reductase activity (ribonucleotide reductase; 100 mg/kg oral, 12 days): reduced
- intratumoral dNTF pools (ribonucleotide reductase; oral COH29): decrease
- PARP1 protein level (PARP1; HCC1937 BRCA1-defective, 24 h): attenuated PARP1 protein
- PARP1 protein level (PARP1; HCC1937 cells irrespective of BRCA1 status, 4 h): Little reduction
- lowest dose observed to inhibit growth of tumor xenografts (tumor xenografts): 50 mg/kg
